Source: ChEMBL document CHEMBL1137410, “Using fragment cocktail crystallography to assist inhibitor design of Trypanosoma brucei nucleoside 2-deoxyribosyltransferase” (2006)

system: Trypanosoma brucei brucei; assay: Inhibition of Trypanosoma brucei brucei growth; assay type: functional; conditions: read-out: ED50 (the source's name)

Which EC50 does the source give for `Cn1c(=O)ccc2ccccc21` here?
The EC50 was 413 µM.

`Nc1cccc2cnccc12` was tested. Which EC50 did it give?
Its EC50 is 252 µM.

`CCc1ccccc1CO` was tested. Which EC50 did it give?
Its EC50 is 1340 µM.
